Patent publication US9486443B2, “Pharmaceutical composition for preventing or treating hypertriglyceridemia or hypertriglyceridemia-associated diseases” (priority 2011, dated 2016)

How the values were obtained:
[1] = test system: hypercholesterolemia-induced animals; test: Evaluation of triglyceride-inhibitory activities in hypercholesterolemia-induced animals; assay type: in vivo, New Zealand White rabbits; conditions: male rabbits on 1% cholesterol diet
Source text: Male New Zealand White rabbits were used as a test animal. All animals, except for the G1 group animals (negative control group, n=4), were fed with an irradiation-sterilized hypercholesterolemia diet, i.e., DYET #620007 (Purina #5321 chow with 1% cholesterol, Dyets, Inc., Bethlehem, Pa. 18017), which was purchased from Central Lab. Animal Inc. In order to induce hypercholesterolemia, the animals were supplied with the diet for more than 8 weeks. After collecting the blood samples from the animals, serum biochemical analyses were performed thereon. Animals having total cholesterol levels of approximately 870 mg/dL were selected as a hypercholesterolemia-induced animal. The test materials were dissolved in saline containing 0.5% carboxymethylcellulose sodium and 1% Tween 80 and then administered directly into the stomach using an oral syringe adapted with a latex catheter, once per day for 4 weeks. The test groups are as in the following Table 1. […] The values in Table 2 represent average triglyceride concentrations (mg/dL) of the respective group.

[2] = test system: hypertriglyceridemia and hypercholesterolemia-induced animals; test: Evaluation of triglyceride-inhibitory activities in hypertriglyceridemia and hypercholesterolemia-induced animals; assay type: in vivo, New Zealand White rabbits; conditions: oral, Formula 1 20 mg/kg/day, amlodipine 5 mg/kg/day; for average triglyceride concentration, 4 weeks: male rabbits on 0.5% cholesterol, 14% coconut oil diet, once per day for 4 weeks, fasted 12 to 16 hours
Source text: Male New Zealand White rabbits were used as a test animal. All animals, except for the G1 group animals (negative control group), were fed with an irradiation-sterilized hypertriglyceridemia and hypercholesterolemia diet, i.e., DYET #621082 (Purina #5321 chow with 0.5% cholesterol, 14% coconut oil & 2% Maltose Dextrin, Dyets, Inc., Bethlehem, Pa. 18017), which was purchased from Saeronbio Inc. In order to induce hypertriglyceridemia and hypercholesterolemia, the animals were supplied with the diet for more than 4 weeks. After collecting the blood samples from the animals, serum biochemical analyses were performed thereon. Animals showing significant changes in total cholesterol levels and triglyceride levels were selected, in comparison with the non-treated control group. The selected animals were divided into 4 groups on the basis of the total cholesterol levels and triglyceride levels, thereby all the groups having substantially equal average values in the total cholesterol levels and triglyceride levels. The test materials were dissolved in saline containing 0.5% carboxymethyl-cellulose sodium and 1% Tween 80 and then administered directly into the stomach using an oral syringe adapted with a latex catheter, once per day for 4 weeks. The test groups are as in the following Table 3.
The blood samples were collected through the jugular vein, from the animals at the day initiating the administration of the test material(s) (i.e., at the time of group-dividing, 0 week), and from the animals (which were fasted for 12 to 16 hours before collecting the blood) at 4 weeks after initiating the administration of the test material(s) (n=4-7).
The triglyceride concentrations in the hypertriglyceridemia and hypercholesterolemia-induced animals as in the above are presented in the following Table 4. The values in Table 4 represent average triglyceride concentrations (mg/dL) of the respective group.

Structure (SMILES) | average triglyceride concentration, 0 week ([1]; baseline sample (0 week), before administration, group average) | average triglyceride concentration, 2 weeks ([1]; oral, once per day, 2 weeks after initiating administration, fasted 12 to 16 hours, Formula 1 20 mg/kg/day, amlodipine 5, fenofibrate 30) | average triglyceride concentration, 4 weeks ([1]; oral, once per day, 4 weeks after initiating administration, fasted 12 to 16 hours, Formula 1 20 mg/kg/day, amlodipine 5, fenofibrate 30) | inhibition at 20 mg/kg ([2]; Oryctolagus cuniculus, 672 h, 4 weeks, in comparison with the G2 group, once per day, read-out: Percent inhibition of triglyceride in the blood) | average triglyceride concentration, 4 weeks [2] | Percent inhibition of triglyceride in the blood ([2]; 4 weeks, in comparison with the G2 group, once per day)
COc1cc(F)c(C(C)C)cc1-c1ccc(C(F)(F)F)cc1CN1C(=O)O[C@H](c2cc(C(F)(F)F)cc(C(F)(F)F)c2)[C@@H]1C [Compound of Formula 1, (4S,5R)-5-[3,5-bis(trifluoromethyl)phenyl]-3-({2-[4-fluoro-2-methoxy-5-(propan-2-yl)phenyl]-5-(trifluoromethyl)phenyl}methyl)-4-methyl-1,3-oxazolidin-2-one] | 167.4 mg/dL | 255.8 mg/dL | 356.7 mg/dL | 10.2% | 293.1 mg/dL | 
CCOC(=O)C1=C(COCCN)NC(C)=C(C(=O)OC)C1c1ccccc1Cl (stereo not shown) [Amlodipine, reference compound] |  |  |  |  | 268.0 mg/dL | 17.9%
